Key:
[1] = LC-MS/MS quantitation of drugs in single-point patient plasma samples (therapeutic drug monitoring); assay type: in vivo, human; conditions: for concentration at 1 h: patient 4; for concentration at 27 day: sampling day 27 (off-treatment week)
Experimental: Samples from ten women (ages 35 to 78, median 50.5 years) receiving regular treatment with a combination of a CDK4/6 inhibitor (PAL, RIB or ABE) and endocrine therapy (ANA, LET, FUL or exemestane, EXE) were obtained and analyzed using this LC-MS method. The samples were mostly taken in the elimination phase, during the patients’ regular visit to the hospital before the next dose administration, except in the case of patient 4 (sampling 1 h after dose administration). The aromatase inhibitors and ABE are continuously administered as single daily doses, FUL is a once-monthly intramuscular injection, and the dosing regimen of PAL and RIB involves a week off treatment every 21 days to minimize treatment-induced neutropenia.
The samples were analyzed against freshly prepared calibration curves. The results are listed in Table 7, while the accompanying chromatograms and mass spectra are included in the Supplementary Materials, Section 1, Figures S1–S29.
Healthy and patient blood samples were collected and pre-treated at the University Hospital Centre Zagreb, with signed informed consent. Patients receiving a combination of a CDK4/6 inhibitor and endocrine therapy as regular treatment for at least 4 months were enrolled.
Whole blood was collected in containers with K2-EDTA anticoagulant and centrifuged for 10 min at 1500 g; the supernatant was then withdrawn and stored at −18 °C (blank plasma) or −80 °C (patients’ plasma). Hemolyzed plasma was obtained by briefly freezing a whole blood sample at −18 °C before continuing with the procedure.
(§1) Calibration and QC samples were prepared by diluting 5 µL of the appropriate working solutions of the analytes with 45 µL of blank plasma in 1.5 mL polypropylene centrifuge tubes. In case of patient sample analysis, an aliquot of 50 µL of patient plasma was used. Proteins were precipitated by adding 200 µL of ACN, after which the samples were vortex-mixed for 10 s and centrifuged at 2000 g for 5 min. The resulting supernatant was collected and 200 µL was evaporated to dryness in a vacuum evaporator at room temperature. The dry residue was dissolved in 40 µL of 65% methanol, while 5 µL was injected into the chromatographic system.

[2] = Stability of the analytes in plasma (bench top, autosampler, freeze-thaw, long-term); assay type: physicochemical, human; conditions: for Stability Bias (%) 1 FT Cycle (30 min, −18–25 °C) / Stability Bias (%) 2 FT Cycles (30 min, −18–25 °C) / Stability Bias (%) 3 FT Cycles (30 min, −18–25 °C) / Stability Bias (%) Long-Term (2 Weeks, −18 °C): plasma; for Stability Bias (%) 1 FT Cycle (30 min, −18–25 °C) / Stability Bias (%) 2 FT Cycles (30 min, −18–25 °C) / Stability Bias (%) 3 FT Cycles (30 min, −18–25 °C) / Stability Bias (%) Long-Term (2 Weeks, −18 °C) / Stability Bias (%) Autosampler (10 h, 10 °C): N = 3; for Stability Bias (%) Autosampler (10 h, 10 °C): processed plasma sample; for Stability Bias (%) Bench Top (2 h, 25 °C): unprocessed plasma, N = 3, vs fresh QC
Experimental: Stability of the stock and working solutions was determined in the preliminary studies. […] Patient plasma samples were stored long-term at −80 °C. Since adequate stability of plasma samples was proven at −18 °C, it was deemed acceptable at lower temperatures as well. Lower- and higher-concentration QC samples were prepared in triplicate for each condition and time point and were analyzed against QC samples freshly prepared in triplicate.

[3] = plasma; cited from earlier work
[4] = Clinical pharmacokinetic evaluation of RIB in one patient, first day of a treatment cycle, non-compartmental analysis; assay type: in vivo, human; conditions: 600 mg oral dose
Experimental: Finally, we applied our fully validated method to evaluate the pharmacokinetic disposition of RIB in a patient during the first day of a treatment cycle. The plasma samples were prepared in the same manner as the single-point study samples and quantitated using a freshly prepared calibration curve. No additional dilution or preconcentration was necessary, as all the determined concentrations fell within the validated range. The corresponding data are available in Table S1 of the Supplementary Materials, Section 2 (Results of the pharmacokinetic study).
Pharmacokinetic data were analyzed with the PK solver Excel extension, using the linear trapezoidal model for non-compartmental analysis of plasma data after extravascular input. […] The beginning of the elimination phase was estimated around three hours after dosing. Ribociclib is administered as an instant release tablet dosage form, so no absorption lag was neither expected nor observed.
as §1

[5] = higher QC level (RIB 2500, ABE 1500, PAL 250, ANA 100, LET 250, FUL 500 ng/mL)
[6] = lower QC level (RIB 62.5, ABE 37.5, PAL 6.2, ANA 2.5, LET 6.25, FUL 12.5 ng/mL)

SMILES	Stability Bias (%) 1 FT Cycle (30 min, −18–25 °C) [2, 5]	Stability Bias (%) 2 FT Cycles (30 min, −18–25 °C) [2, 5]	Stability Bias (%) 3 FT Cycles (30 min, −18–25 °C) [2, 5]	Stability Bias (%) Long-Term (2 Weeks, −18 °C) [2, 5]	Stability Bias (%) 1 FT Cycle (30 min, −18–25 °C) [2, 6]	Stability Bias (%) 2 FT Cycles (30 min, −18–25 °C) [2, 6]	Stability Bias (%) 3 FT Cycles (30 min, −18–25 °C) [2, 6]	Stability Bias (%) Long-Term (2 Weeks, −18 °C) [2, 6]	Stability Bias (%) Autosampler (10 h, 10 °C) [2, 5]	Stability Bias (%) Autosampler (10 h, 10 °C) [2, 6]	Stability Bias (%) Bench Top (2 h, 25 °C) [2, 5]	Stability Bias (%) Bench Top (2 h, 25 °C) [2, 6]	Expected literature range Cmin–Cmax [3]	other results
N#Cc1ccc(C(c2ccc(C#N)cc2)n2cncn2)cc1 [LET, letrozole]	2.07%	−0.26%	−7.61%	−7.75%	−0.06%	−6.52%	−3.50%	−10.44%	−0.29%	6.11%	6.16%	−6.81%	28.4–349.2 [28] ng/mL	concentration at 1 h ([1]; human, plasma, LET 2.5 mg daily, 1 h after dose administration): 139 ng/mL; Plasma Concentration ([1]; patient 1, LET 2.5 mg daily): 109.99 ng/mL; Plasma Concentration ([1]; patient 2, LET 2.5 mg daily): 141.11 ng/mL; Plasma Concentration ([1]; patient 3, LET 2.5 mg daily): 146.21 ng/mL
CC(=O)c1c(C)c2cnc(Nc3ccc(N4CCNCC4)cn3)nc2n(C2CCCC2)c1=O [PAL, palbociclib]	6.35%	−1.65%	−7.90%	−3.08%	14.97%	1.86%	2.81%	12.29%	14.95%	13.69%	−4.37%	3.08%	72.8–185.5 [26] ng/mL	concentration at 27 day ([1]; human, plasma, patient 8, PAL 125 mg daily): 7.55 ng/mL; Plasma Concentration (ng/mL) ([1]; patient 9, PAL 125 mg daily, sampling day 28 (off-treatment week)): <LOQ; Plasma Concentration (ng/mL) ([1]; patient 10, PAL 125 mg daily, sampling day 23 (off-treatment week)): <LOD
CN(C)C(=O)c1cc2cnc(Nc3ccc(N4CCNCC4)cn3)nc2n1C1CCCC1 [RIB, ribociclib]	11.10%	−1.66%	−4.69%	−10.69%	7.88%	1.69%	6.00%	13.89%	−6.47%	8.95%	4.96%	6.01%	711–3500 [24] ng/mL	concentration at 24 day ([1]; human, plasma, oral, patient 2, RIB 600 mg daily, sampling day 24 of cycle (off-treatment week)): 57.4 ng/mL; concentration at 16 day ([1]; human, plasma, oral, patient 3, RIB 600 mg daily, sampling day 16 (trough, steady state)): 682 ng/mL; concentration at 1 h ([1]; human, plasma, oral, RIB 600 mg daily, sampling day 1, 1 h after dose administration): 1520 ng/mL; concentration at 12 day ([1]; human, plasma, oral, patient 5, RIB 600 mg daily, sampling day 12 (trough, steady state)): 1190 ng/mL; concentration at 28 day ([1]; human, plasma, oral, patient 6, RIB 600 mg daily, sampling day 28 (off-treatment week)): 27.2 ng/mL; concentration at 27 day ([1]; human, plasma, oral, patient 7, RIB 600 mg daily): 40.7 ng/mL; Elimination constant ([4]; non-compartmental analysis, PK solver): 0.022 h⁻¹; Cmax ([4]; human, first day of treatment cycle, plasma, read-out: Maximum concentration (Cmax)): 1830 ng/mL; half-life ([4]; human, plasma, non-compartmental analysis, PK solver, read-out: Elimination half-life (converted)): 31.6 h; concentration at 0 h ([4]; human, plasma, t 0.00 h, read-out: CRIB (ng/mL) plasma concentration): 945 ng/mL; concentration at 0.25 h ([4]; human, plasma, t 0.25 h, read-out: CRIB (ng/mL) plasma concentration): 1050 ng/mL; concentration at 0.5 h ([4]; human, plasma, t 0.50 h, read-out: CRIB (ng/mL) plasma concentration): 1240 ng/mL; concentration at 1 h ([4]; human, plasma, t 1.00 h, read-out: CRIB (ng/mL) plasma concentration): 1520 ng/mL; concentration at 3 h ([4]; human, plasma, t 3.00 h, read-out: CRIB (ng/mL) plasma concentration): 1830 ng/mL; concentration at 6 h ([4]; human, plasma, t 6.00 h, read-out: CRIB (ng/mL) plasma concentration): 1710 ng/mL; concentration at 12 h ([4]; human, plasma, t 12.00 h, read-out: CRIB (ng/mL) plasma concentration): 1500 ng/mL

Source: paper PMC9147789, “Development and Validation of a Novel LC-MS/MS Method for the Simultaneous Determination of Abemaciclib, Palbociclib, Ribociclib, Anastrozole, Letrozole, and Fulvestrant in Plasma Samples: A Prerequisite for Personalized Breast Cancer Treatment” (Pharmaceuticals, 2022)
